Results on 3 compounds are retold here after patent US11396522B2, “Bis-acetal-based substrates for imaging exo-glycosidase activity” (ALECTOS THERAPEUTICS INC., priority 2017, dated 2022).

One data set addresses T1, GBA1 (Homo sapiens, UniProt P04062).
T1 sequence (P04062 40-536): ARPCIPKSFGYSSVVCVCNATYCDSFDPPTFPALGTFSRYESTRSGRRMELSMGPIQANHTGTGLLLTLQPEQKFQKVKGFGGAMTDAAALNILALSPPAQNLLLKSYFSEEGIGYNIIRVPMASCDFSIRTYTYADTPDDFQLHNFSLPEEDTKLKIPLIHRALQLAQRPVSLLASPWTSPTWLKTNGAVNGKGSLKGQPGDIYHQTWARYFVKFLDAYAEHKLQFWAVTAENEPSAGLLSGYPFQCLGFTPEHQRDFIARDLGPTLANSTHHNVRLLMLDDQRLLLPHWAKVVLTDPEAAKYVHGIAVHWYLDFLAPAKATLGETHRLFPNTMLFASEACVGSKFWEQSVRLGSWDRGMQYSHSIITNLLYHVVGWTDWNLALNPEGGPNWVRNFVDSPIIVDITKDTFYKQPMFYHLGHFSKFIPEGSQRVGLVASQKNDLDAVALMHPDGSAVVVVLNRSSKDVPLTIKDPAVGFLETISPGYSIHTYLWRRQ
Kind of data set: Live cell imaging of GBA1 activity in SK-N-SH cells. The format is cell-based. How it is done: SK-N-SH cells were cultured, except where indicated otherwise, in EMEM supplemented with 10% FBS and 1% penicillin-streptomycin at 37° C. and 5% CO2. The media was replaced every 3-4 days and the cells passaged after reaching 70-80% confluency, which occurred approximately every week. For imaging experiments, cells were seeded in triplicate into the central 60 wells of a sterile 96-well plate (Corning 4680) at a density of 10000 cells/well.
Fluorescence measurements in live cells was performed using a Molecular Devices ImageXpress XLS High-Content Imaging system (HCl). Live cells were plated in a 96-well or 384-well Corning plates. Cells were left to adhere and incubated at 37° C. in 5% CO2 for at least 12 h in EMEM supplemented with 10% FBS and 1% penicillin-streptomycin before any treatment. Cells were then washed with warm (37° C.) EMEM (with no phenol red and FBS). A mixture of vehicle, substrate dissolved in DMSO (0.1% final concentration of DMSO), or substrate and inhibitor mixture, were added to the imaging media (EMEM with no phenol red or FBS supplemented with DAPI) which was then added to these cells and incubated at 37° C. and 5% CO2 in the dark for the times specified (typically 2 h). […] For each well, 9 sites were imaged at predefined regions of each well and 2 to 3 channel were recorded (DAPI, FITC, TRITC). The data was analyzed using the MetaXpress software suite. by determining the Mean Integrated Intensity obtained using the TRITC channel and dividing by the number of cells (determined thanks to DAPI staining).
The Glc-H-BABS(TAMRA/BHQ2) 8 was also evaluated in the human neuronal cell culture model cells SK-N-SH. […] By integrating the fluorescence intensity from randomly selected fields, it was possible to observe a quantitative increase in fluorescence with increasing concentrations of the Glc-BABS 8. Next, it was established that there is a dose-dependent cellular fluorescence where a linear increase in fluorescence was observed that depended on the concentration of Glc-BABS 8 (FIG. 12). […]

Data set [1] can be described thus: pH stability of Glyco-BABS. Type of data set: physicochemical. The following applies: 5 μM, up to 72 h, pH 2 to 10. The source says: One concern with the Glyco-BABS design was the known lability of acetals under acidic conditions that has been exploited in pH-sensitive prodrugs or linkers for drug delivery.^41,42 However, we recognized that carbohydrate anomeric acetals are chemically distinct from regular acetals. Due to stabilization by the endocyclic oxygen, we expected these bis-acetals would show stability across a range of physiological pH values. We therefore assessed the stability of the bis-acetal motif toward acid and base hydrolysis (FIG. 8). To do so, we tested the pH stability of 5 μM of GlcNAc-Br-BABS 1, GlcNAc-OH-BABS 2, Glc-OH-BABS 6 and Glc-H-BABS 7 at different pH over time. We prepared solutions at various pH by mixing 0.2 M KCl+0.1 M HCl with 0.2 M KCl+0.1 M KOH. Fluorescence of EDANS and Glyco-BABS solutions (5 μM, 45 μL) at different pH was measured at different time points in Nunc 384-well plates using a SpectraMax i3× plate reader. Data (triplicates) support the highly efficient quenching and the stability of these substrates over a wide range of pH.

For another data set, the target named is T2, hOGA (Homo sapiens, UniProt O60502).
T2 construct: started by addition of hOGA (WT, Full-length, expressed in E. coli. as previously described); made in house; host or cells: E. coli
T2 sequence (O60502 1-916): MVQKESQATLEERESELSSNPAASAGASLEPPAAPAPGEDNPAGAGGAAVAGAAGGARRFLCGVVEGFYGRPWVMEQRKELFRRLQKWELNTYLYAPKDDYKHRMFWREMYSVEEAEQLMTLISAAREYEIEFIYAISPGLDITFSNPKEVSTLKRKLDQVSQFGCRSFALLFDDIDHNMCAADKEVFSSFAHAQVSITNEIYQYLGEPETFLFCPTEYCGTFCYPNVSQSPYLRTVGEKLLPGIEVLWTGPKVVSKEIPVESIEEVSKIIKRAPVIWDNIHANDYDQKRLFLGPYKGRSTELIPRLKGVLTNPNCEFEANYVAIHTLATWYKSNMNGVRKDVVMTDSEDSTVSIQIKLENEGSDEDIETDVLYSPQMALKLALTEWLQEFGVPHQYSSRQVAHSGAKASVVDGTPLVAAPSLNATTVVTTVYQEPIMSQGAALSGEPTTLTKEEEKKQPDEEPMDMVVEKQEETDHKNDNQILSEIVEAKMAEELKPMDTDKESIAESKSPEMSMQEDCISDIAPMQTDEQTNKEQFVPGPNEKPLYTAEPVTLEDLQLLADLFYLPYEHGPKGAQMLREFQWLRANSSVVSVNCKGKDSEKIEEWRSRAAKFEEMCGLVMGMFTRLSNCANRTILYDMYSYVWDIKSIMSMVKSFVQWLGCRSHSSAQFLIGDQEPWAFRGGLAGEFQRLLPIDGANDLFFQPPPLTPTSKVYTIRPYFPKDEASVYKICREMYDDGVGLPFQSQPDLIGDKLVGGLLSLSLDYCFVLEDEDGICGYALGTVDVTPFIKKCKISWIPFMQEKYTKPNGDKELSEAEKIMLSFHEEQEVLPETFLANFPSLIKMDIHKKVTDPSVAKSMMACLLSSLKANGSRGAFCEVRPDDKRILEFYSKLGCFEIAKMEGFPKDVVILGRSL
Nature of the data set: Interrupted assay for determination of hemiacetal breakdown. Type of data set: biochemical. How it is done: For some experiments, fluorescence kinetic assays were performed using a Varian Cary Eclipse Spectrophotometer set for 335/493 nm excitation/emission wavelengths. Slits were set at 10 nm and the detector was set on Medium voltage. Enzymatic reactions with human OGA were carried out in PBS at 37° C. and were started by addition of hOGA (WT, Full-length, expressed in E. coli. as previously described) in a total volume of 160 μL (Starna sub-micro Fluorometer cuvette). For measurements of rates using different concentrations of substrates, a hOGA concentration of 100 nM was used. For hOGA titration, 25 μM of Glyco-BABS were added to various concentration of hOGA. For interrupted assay, reaction was started by addition of hOGA (680 nM final) in solutions of GlcNAc-BABS in PBS. […] For hemiacetal breakdown rate measurements, data after Thiamet-G addition was extracted and fitted using Prism software. EDANS standard curve was established using endpoint fluorescence measurements of serial dilutions of EDANS in the relevant buffer using the same instrument parameters. Inner-Filter effect measurements were carried out in cuvette by measuring fluorescence of several concentrations of EDANS in presence of various concentrations of GlcNAc-BABS. Kinetics with Glc-BABS and GBA enzymes (GBA1 and GBA3 purchased from R&D Systems), kinetics with GALC (R&D systems) and Gal-BABS, pH stability, quenching efficiency, some inner-filter effect experiments and lysates experiments were carried out using a Molecular Devices SpectraMax i3× plate reader. Emission/Excitation wavelengths were set at 350 and 490 nm respectively for EDANS/DABCYL Glyco-BABS and at 565 and 610 nm respectively for TAMRA/BHQ2 Glyco-BABS. Fluorescence measurements were performed using Costar 96-well black plates or Nunc 384-well black plates after sample preparation in 96-well mixing plates. For GBA1, the continuous assay was performed in citrate buffer (50 mM, pH 5.5) in the presence of 0.1% Triton, 1 mg/mL BSA and 0.14% taurodeoxycholate at 25° C. […]

“Also recorded” adds a separate entry of the source.

Turning to `O[C@H]1[C@H](O)CNC[C@@H]1C(F)F` [AT3375, (3R,4R,5S)-5-(difluoromethyl)piperidine-3,4-diol], at GBA1 (10 μM AT3375 with 5 μM Glc-BABS 8), the “effect on fluorescent signal of Glc-BABS 8 in live SK-N-SH cells” value is “significant reduction; also recorded: clear decrease of the signal”. Moreover, the “fluorescence signal vs inhibitor concentration in live SK-N-SH cells” value at GBA1 (varying AT3375 concentrations, 5 μM Glc-BABS 8, 2 h) is on record as “decreasing fluorescence signal with increasing inhibitor concentration”.
Consider `COc1cc(/N=N/c2ccc([N+](=O)[O-])cc2)c(OC)cc1/N=N/c1ccc(N(C)CCCC(=O)NCc2cn(CCOCCOC(CC(=O)NCCCCCCNC(=O)c3ccc(-c4c5ccc(=[N+](C)C)cc-5oc5cc(N(C)C)ccc45)c(C(=O)[O-])c3)O[C@@H]3O[C@H](CO)[C@@H](O)[C@H](O)[C@H]3O)nn2)cc1` (stereo partly drawn) [Compound 8, 5-((6-(3-(2-(2-(4-((4-((4-((E)-(2,5-dimethoxy-4-((E)-(4-nitrophenyl)diazenyl)phenyl)diazenyl)phenyl)(methyl)amino)butanamido)methyl)-1H-1,2,3-triazol-1-yl)ethoxy)ethoxy)-3-(((2S,3R,4S,5S,6R)-3,4,5-trihydroxy-6-(hydroxymethyl)tetrahydro-2H-pyran-2-yl)oxy)propanamido)hexyl)carbamoyl)-2-(6-(dimethylamino)-3-(dimethyliminio)-3H-xanthen-9-yl)benzoate], for which the “processing to fluorescent product in live SK-N-SH cells” value on GBA1 (5 μM and varying concentrations, 1 to 2 h) is listed as “processed in cells to result in the fluorescent product”.
With `CC(=O)N[C@H]1[C@H](O[C@@H](OCCOCCn2cc(CNC(=O)c3ccc(/N=N/c4ccc(N(C)C)cc4)cc3)nn2)[C@@](C)(O)C(=O)NCCNc2cccc3c(S(=O)(=O)O)cccc23)O[C@H](CO)[C@@H](O)[C@@H]1O` [Compound 2, 5-((2-((2R,3R)-3-(((2S,3R,4R,5S,6R)-3-acetamido-4,5-dihydroxy-6-(hydroxymethyl)tetrahydro-2H-pyran-2-yl)oxy)-3-(2-(2-(4-((4-((E)-(4-(dimethylamino)phenyl)diazenyl)benzamido)methyl)-1H-1,2,3-triazol-1-yl)ethoxy)ethoxy)-2-hydroxy-2-methylpropanamido)ethyl)amino)naphthalene-1-sulfonic Acid], the “pH stability (increase of fluorescence)” value in data set [1] is recorded as “no significant increase of fluorescence”. Besides, the “first order rate constant (k3) for hemiacetal breakdown” value at hOGA (hemiacetal generated from the substrate, hOGA stopped after 1 min with Thiamet-G 100 μM) came to 0.044 s⁻¹. Further, the “hemiacetal breakdown, times faster than the one from GlcNAc-Br-BABS 1” value at hOGA (ratio of k3) came to 4.5 times.
